# Test results published in ChEMBL document CHEMBL1909046, “DrugMatrix in vitro pharmacology data”.
# Biological target: T1, Alpha-1D adrenergic receptor (Homo sapiens, UniProt P25100); note: in other assays of this panel Not Active means under 50% inhibition at 10 µM
# T1 sequence (P25100 whole entry): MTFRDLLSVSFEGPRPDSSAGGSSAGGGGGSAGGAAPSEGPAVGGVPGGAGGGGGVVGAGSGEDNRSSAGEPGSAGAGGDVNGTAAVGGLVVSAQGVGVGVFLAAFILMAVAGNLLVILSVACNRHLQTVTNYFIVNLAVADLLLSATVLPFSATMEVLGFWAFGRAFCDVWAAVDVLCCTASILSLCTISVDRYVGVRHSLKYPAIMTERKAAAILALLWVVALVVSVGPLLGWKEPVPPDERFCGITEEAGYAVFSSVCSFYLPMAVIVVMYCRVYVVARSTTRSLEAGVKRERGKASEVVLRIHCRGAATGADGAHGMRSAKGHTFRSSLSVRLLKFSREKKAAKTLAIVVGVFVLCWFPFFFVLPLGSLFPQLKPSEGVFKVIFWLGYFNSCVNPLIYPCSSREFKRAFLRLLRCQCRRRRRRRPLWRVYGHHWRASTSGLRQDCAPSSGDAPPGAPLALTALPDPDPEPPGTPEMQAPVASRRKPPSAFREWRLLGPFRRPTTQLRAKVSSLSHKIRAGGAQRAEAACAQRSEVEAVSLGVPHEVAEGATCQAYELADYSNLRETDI
# Format: cell membranes, HEK293, Membrane
# Settings: hek293
row,Compound,IC50
1,CC1CCC(NC(=O)N(CCCl)N=O)CC1 (configuration not stated) [SEMUSTINE],Not Active
2,O=C1C[C@@H]2OCC=C3CN4CC[C@]56c7ccccc7N1[C@H]5[C@H]2[C@H]3C[C@H]46 [STRYCHNINE],Not Active
3,C[N+](C)(C)CCOC(=O)CCC(=O)OCC[N+](C)(C)C.[Cl-].[Cl-] [SUCCINYLCHOLINE CHLORIDE],Not Active
4,Nc1ccc(S(=O)(=O)NC(=O)c2ccccc2)cc1 [SULFABENZAMIDE],Not Active
5,CCCCCCCCNC(C)C(O)c1ccc(SC(C)C)cc1 (configuration not stated) [SULOCTIDIL],Not Active
6,O=c1[nH]c(=O)n(C2CCCO2)cc1F (configuration not stated) [TEGAFUR],Not Active
7,CC(=N)S [THIOACETAMIDE],Not Active
8,CN1CCN(CCCN2c3ccccc3Sc3ccc(C(F)(F)F)cc32)CC1 [TRIFLUOPERAZINE],Not Active

# Same assay, conditions: read-out: IC50
row,Compound,IC50
1,CN1[C@@H]2CC[C@H]1C[C@@H](OC(c1ccccc1)c1ccccc1)C2 [BENZTROPINE],52 nM
2,Clc1ccc(COC(Cn2ccnc2)c2ccc(Cl)cc2Cl)c(Cl)c1 (configuration not stated) [MICONAZOLE],3050 nM
3,OCCOCCN1CCN(C2=Nc3ccccc3Sc3ccccc32)CC1 [QUETIAPINE],96.6 nM

# Same assay, conditions: read-out: Ki
row,Compound,Ki
1,CN1[C@@H]2CC[C@H]1C[C@@H](OC(c1ccccc1)c1ccccc1)C2 [BENZTROPINE],26 nM
2,Clc1ccc(COC(Cn2ccnc2)c2ccc(Cl)cc2Cl)c(Cl)c1 (configuration not stated) [MICONAZOLE],1500 nM
3,OCCOCCN1CCN(C2=Nc3ccccc3Sc3ccccc32)CC1 [QUETIAPINE],47.5 nM

# Biological target: 5-hydroxytryptamine receptor 6 (Homo sapiens, UniProt P50406); note: in other assays of this panel Not Active means under 50% inhibition at 10 µM
# Sequence (P50406 whole entry): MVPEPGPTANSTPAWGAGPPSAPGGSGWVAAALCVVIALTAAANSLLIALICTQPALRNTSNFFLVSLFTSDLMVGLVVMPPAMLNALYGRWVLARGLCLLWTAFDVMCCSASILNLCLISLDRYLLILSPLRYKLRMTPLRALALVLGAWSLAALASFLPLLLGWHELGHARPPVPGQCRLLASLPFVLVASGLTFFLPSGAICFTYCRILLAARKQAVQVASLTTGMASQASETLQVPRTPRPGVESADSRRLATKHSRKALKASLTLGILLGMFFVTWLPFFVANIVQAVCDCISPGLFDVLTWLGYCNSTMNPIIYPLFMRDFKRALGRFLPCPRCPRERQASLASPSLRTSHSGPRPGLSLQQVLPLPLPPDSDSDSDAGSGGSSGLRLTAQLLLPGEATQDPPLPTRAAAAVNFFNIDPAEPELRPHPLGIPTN
# Format: cell membranes, HeLa, Membrane
# Settings: hela
row,Compound,IC50
1,OCCOCCN1CCN(C2=Nc3ccccc3Sc3ccccc32)CC1 [QUETIAPINE],Not Active
2,CC1CCC(NC(=O)N(CCCl)N=O)CC1 (configuration not stated) [SEMUSTINE],Not Active
3,O=C1C[C@@H]2OCC=C3CN4CC[C@]56c7ccccc7N1[C@H]5[C@H]2[C@H]3C[C@H]46 [STRYCHNINE],Not Active
4,C[N+](C)(C)CCOC(=O)CCC(=O)OCC[N+](C)(C)C.[Cl-].[Cl-] [SUCCINYLCHOLINE CHLORIDE],Not Active
5,Nc1ccc(S(=O)(=O)NC(=O)c2ccccc2)cc1 [SULFABENZAMIDE],Not Active
6,CCCCCCCCNC(C)C(O)c1ccc(SC(C)C)cc1 (configuration not stated) [SULOCTIDIL],Not Active
7,O=c1[nH]c(=O)n(C2CCCO2)cc1F (configuration not stated) [TEGAFUR],Not Active
8,CC(=N)S [THIOACETAMIDE],Not Active
9,CN1CCN(CCCN2c3ccccc3Sc3ccc(C(F)(F)F)cc32)CC1 [TRIFLUOPERAZINE],Not Active

# Same assay, conditions: read-out: IC50
row,Compound,IC50
1,CN1[C@@H]2CC[C@H]1C[C@@H](OC(c1ccccc1)c1ccccc1)C2 [BENZTROPINE],2790 nM
2,Clc1ccc(COC(Cn2ccnc2)c2ccc(Cl)cc2Cl)c(Cl)c1 (configuration not stated) [MICONAZOLE],10900 nM

# Same assay, conditions: read-out: Ki
row,Compound,Ki
1,CN1[C@@H]2CC[C@H]1C[C@@H](OC(c1ccccc1)c1ccccc1)C2 [BENZTROPINE],1290 nM
2,Clc1ccc(COC(Cn2ccnc2)c2ccc(Cl)cc2Cl)c(Cl)c1 (configuration not stated) [MICONAZOLE],5060 nM

# System: not listed separately
# Assay: DRUGMATRIX: Calcium Channel Type L, Phenylalkylamine radioligand binding (ligand: [3H] (-)-Desmethoxyverapamil (D-888))
# Format: cell membranes, Rattus norvegicus, Wistar, Brain, Membrane
# Settings: Not Active = under 50% inhibition at 10 µM
Compound,IC50,Ki
CC1CCC(NC(=O)N(CCCl)N=O)CC1 (configuration not stated) [SEMUSTINE],Not Active,Not Active
O=C1C[C@@H]2OCC=C3CN4CC[C@]56c7ccccc7N1[C@H]5[C@H]2[C@H]3C[C@H]46 [STRYCHNINE],Not Active,Not Active
C[N+](C)(C)CCOC(=O)CCC(=O)OCC[N+](C)(C)C.[Cl-].[Cl-] [SUCCINYLCHOLINE CHLORIDE],Not Active,Not Active
Nc1ccc(S(=O)(=O)NC(=O)c2ccccc2)cc1 [SULFABENZAMIDE],Not Active,Not Active
O=c1[nH]c(=O)n(C2CCCO2)cc1F (configuration not stated) [TEGAFUR],Not Active,Not Active
CC(=N)S [THIOACETAMIDE],Not Active,Not Active
CN1CCN(CCCN2c3ccccc3Sc3ccc(C(F)(F)F)cc32)CC1 [TRIFLUOPERAZINE],Not Active,Not Active

# Same assay, conditions: Not Active = under 50% inhibition at 10 µM; read-out: IC50
row,Compound,IC50
1,CCCCCCCCNC(C)C(O)c1ccc(SC(C)C)cc1 (configuration not stated) [SULOCTIDIL],525 nM

# Same assay, conditions: Not Active = under 50% inhibition at 10 µM; read-out: Ki
row,Compound,Ki
1,CCCCCCCCNC(C)C(O)c1ccc(SC(C)C)cc1 (configuration not stated) [SULOCTIDIL],510 nM

# Biological target: T2, Leukotriene C4 synthase (Cavia porcellus, UniProt A6XA80);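 note: enzyme inhibition assay of leukotriene C4 synthase, using LTA4 as the substrate; in other assays of this panel Not Active means under 50% inhibition at 10 µM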
# T2 sequence (A6XA80 whole entry): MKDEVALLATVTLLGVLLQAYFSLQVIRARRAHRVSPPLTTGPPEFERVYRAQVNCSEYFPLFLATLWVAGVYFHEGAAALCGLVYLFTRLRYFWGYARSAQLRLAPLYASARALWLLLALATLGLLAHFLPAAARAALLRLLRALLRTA
# Format: tissue-based, Lung
# Settings: not given
row,Compound,IC50
1,CN1[C@@H]2CC[C@H]1C[C@@H](OC(c1ccccc1)c1ccccc1)C2 [BENZTROPINE],Not Active
2,CN1CCN(C2=Nc3cc(Cl)ccc3Nc3ccccc32)CC1 [CLOZAPINE],Not Active
3,Clc1ccc(COC(Cn2ccnc2)c2ccc(Cl)cc2Cl)c(Cl)c1 (configuration not stated) [MICONAZOLE],Not Active
4,OCCOCCN1CCN(C2=Nc3ccccc3Sc3ccccc32)CC1 [QUETIAPINE],Not Active
5,CC1CCC(NC(=O)N(CCCl)N=O)CC1 (configuration not stated) [SEMUSTINE],Not Active
6,O=C1C[C@@H]2OCC=C3CN4CC[C@]56c7ccccc7N1[C@H]5[C@H]2[C@H]3C[C@H]46 [STRYCHNINE],Not Active
7,C[N+](C)(C)CCOC(=O)CCC(=O)OCC[N+](C)(C)C.[Cl-].[Cl-] [SUCCINYLCHOLINE CHLORIDE],Not Active
8,Nc1ccc(S(=O)(=O)NC(=O)c2ccccc2)cc1 [SULFABENZAMIDE],Not Active
9,CCCCCCCCNC(C)C(O)c1ccc(SC(C)C)cc1 (configuration not stated) [SULOCTIDIL],Not Active
10,O=c1[nH]c(=O)n(C2CCCO2)cc1F (configuration not stated) [TEGAFUR],Not Active
11,CC(=N)S [THIOACETAMIDE],Not Active
12,CN1CCN(CCCN2c3ccccc3Sc3ccc(C(F)(F)F)cc32)CC1 [TRIFLUOPERAZINE],Not Active

# System: not listed separately
# Assay: DRUGMATRIX: Nicotinic Acetylcholine radioligand binding (ligand: [125I] Epibatidine)
# Format: cell membranes, Membrane
# Settings: imr-32; Not Active = under 50% inhibition at 10 µM
Compound,IC50,Ki
CC1CCC(NC(=O)N(CCCl)N=O)CC1 (configuration not stated) [SEMUSTINE],Not Active,Not Active
O=C1C[C@@H]2OCC=C3CN4CC[C@]56c7ccccc7N1[C@H]5[C@H]2[C@H]3C[C@H]46 [STRYCHNINE],Not Active,Not Active
C[N+](C)(C)CCOC(=O)CCC(=O)OCC[N+](C)(C)C.[Cl-].[Cl-] [SUCCINYLCHOLINE CHLORIDE],Not Active,Not Active
Nc1ccc(S(=O)(=O)NC(=O)c2ccccc2)cc1 [SULFABENZAMIDE],Not Active,Not Active
O=c1[nH]c(=O)n(C2CCCO2)cc1F (configuration not stated) [TEGAFUR],Not Active,Not Active
CC(=N)S [THIOACETAMIDE],Not Active,Not Active
CN1CCN(CCCN2c3ccccc3Sc3ccc(C(F)(F)F)cc32)CC1 [TRIFLUOPERAZINE],Not Active,Not Active

# Biological target: Cytochrome P450 2D6 (Homo sapiens, UniProt P10635); note: in other assays of this panel Not Active means under 50% inhibition at 10 µM
# Sequence (P10635 whole entry): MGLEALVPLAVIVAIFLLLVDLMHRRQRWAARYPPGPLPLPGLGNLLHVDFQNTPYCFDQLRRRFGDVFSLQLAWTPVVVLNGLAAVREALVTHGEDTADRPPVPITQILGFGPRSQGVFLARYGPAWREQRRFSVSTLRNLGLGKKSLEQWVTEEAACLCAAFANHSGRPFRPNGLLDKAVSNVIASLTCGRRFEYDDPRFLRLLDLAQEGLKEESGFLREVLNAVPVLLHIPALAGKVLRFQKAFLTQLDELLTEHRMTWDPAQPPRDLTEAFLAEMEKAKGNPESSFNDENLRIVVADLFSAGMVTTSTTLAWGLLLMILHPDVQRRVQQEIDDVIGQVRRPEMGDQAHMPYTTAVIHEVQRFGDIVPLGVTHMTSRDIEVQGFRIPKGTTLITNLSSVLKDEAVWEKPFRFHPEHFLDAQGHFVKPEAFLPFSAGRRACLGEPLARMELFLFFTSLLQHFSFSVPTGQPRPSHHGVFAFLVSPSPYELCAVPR
# Settings: bti-tn-5b1-4
Compound,IC50,Ki
CN1[C@@H]2CC[C@H]1C[C@@H](OC(c1ccccc1)c1ccccc1)C2 [BENZTROPINE],Not Active,Not Active
CN1CCN(C2=Nc3cc(Cl)ccc3Nc3ccccc32)CC1 [CLOZAPINE],Not Active,Not Active
OCCOCCN1CCN(C2=Nc3ccccc3Sc3ccccc32)CC1 [QUETIAPINE],Not Active,Not Active
CC1CCC(NC(=O)N(CCCl)N=O)CC1 (configuration not stated) [SEMUSTINE],Not Active,Not Active
O=C1C[C@@H]2OCC=C3CN4CC[C@]56c7ccccc7N1[C@H]5[C@H]2[C@H]3C[C@H]46 [STRYCHNINE],Not Active,Not Active
C[N+](C)(C)CCOC(=O)CCC(=O)OCC[N+](C)(C)C.[Cl-].[Cl-] [SUCCINYLCHOLINE CHLORIDE],Not Active,Not Active
Nc1ccc(S(=O)(=O)NC(=O)c2ccccc2)cc1 [SULFABENZAMIDE],Not Active,Not Active
CCCCCCCCNC(C)C(O)c1ccc(SC(C)C)cc1 (configuration not stated) [SULOCTIDIL],Not Active,Not Active
O=c1[nH]c(=O)n(C2CCCO2)cc1F (configuration not stated) [TEGAFUR],Not Active,Not Active
CC(=N)S [THIOACETAMIDE],Not Active,Not Active

# Biological target: Voltage-gated inwardly rectifying potassium channel KCNH2 (Homo sapiens, UniProt Q12809); note: in other assays of this panel Not Active means under 50% inhibition at 10 µM
# Sequence (Q12809 whole entry): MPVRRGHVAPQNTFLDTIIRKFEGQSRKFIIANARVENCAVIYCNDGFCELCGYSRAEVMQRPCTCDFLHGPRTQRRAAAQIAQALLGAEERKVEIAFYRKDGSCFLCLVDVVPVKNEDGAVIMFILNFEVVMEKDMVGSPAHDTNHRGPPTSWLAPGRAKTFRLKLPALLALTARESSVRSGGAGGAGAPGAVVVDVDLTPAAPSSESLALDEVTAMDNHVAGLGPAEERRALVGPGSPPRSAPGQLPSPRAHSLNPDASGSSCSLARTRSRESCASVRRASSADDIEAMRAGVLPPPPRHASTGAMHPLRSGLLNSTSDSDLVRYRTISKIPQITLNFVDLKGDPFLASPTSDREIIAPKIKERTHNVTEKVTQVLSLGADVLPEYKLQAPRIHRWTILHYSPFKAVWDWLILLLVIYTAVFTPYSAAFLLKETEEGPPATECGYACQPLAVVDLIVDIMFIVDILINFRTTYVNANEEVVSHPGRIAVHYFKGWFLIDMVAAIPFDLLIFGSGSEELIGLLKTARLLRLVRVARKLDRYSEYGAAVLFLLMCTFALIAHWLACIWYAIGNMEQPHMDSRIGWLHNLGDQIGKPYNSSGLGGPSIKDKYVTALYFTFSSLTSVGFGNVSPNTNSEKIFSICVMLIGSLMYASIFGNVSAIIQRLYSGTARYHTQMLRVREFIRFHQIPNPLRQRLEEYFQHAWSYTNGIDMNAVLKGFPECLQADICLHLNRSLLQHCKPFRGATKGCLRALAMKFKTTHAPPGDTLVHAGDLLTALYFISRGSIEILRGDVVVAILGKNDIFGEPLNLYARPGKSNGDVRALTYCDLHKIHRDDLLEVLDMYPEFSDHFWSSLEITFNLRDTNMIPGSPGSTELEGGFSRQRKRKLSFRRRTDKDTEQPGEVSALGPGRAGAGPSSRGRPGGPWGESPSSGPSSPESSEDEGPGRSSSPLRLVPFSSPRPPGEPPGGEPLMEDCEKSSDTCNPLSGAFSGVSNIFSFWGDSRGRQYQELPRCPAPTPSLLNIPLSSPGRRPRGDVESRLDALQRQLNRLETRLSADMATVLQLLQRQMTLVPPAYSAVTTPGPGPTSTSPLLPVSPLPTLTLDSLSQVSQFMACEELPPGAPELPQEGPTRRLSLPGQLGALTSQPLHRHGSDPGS
# Settings: hek293
Compound,IC50,Ki
CN1[C@@H]2CC[C@H]1C[C@@H](OC(c1ccccc1)c1ccccc1)C2 [BENZTROPINE],Not Active,Not Active
Clc1ccc(COC(Cn2ccnc2)c2ccc(Cl)cc2Cl)c(Cl)c1 (configuration not stated) [MICONAZOLE],Not Active,Not Active
CC1CCC(NC(=O)N(CCCl)N=O)CC1 (configuration not stated) [SEMUSTINE],Not Active,Not Active
O=C1C[C@@H]2OCC=C3CN4CC[C@]56c7ccccc7N1[C@H]5[C@H]2[C@H]3C[C@H]46 [STRYCHNINE],Not Active,Not Active
C[N+](C)(C)CCOC(=O)CCC(=O)OCC[N+](C)(C)C.[Cl-].[Cl-] [SUCCINYLCHOLINE CHLORIDE],Not Active,Not Active
Nc1ccc(S(=O)(=O)NC(=O)c2ccccc2)cc1 [SULFABENZAMIDE],Not Active,Not Active
CCCCCCCCNC(C)C(O)c1ccc(SC(C)C)cc1 (configuration not stated) [SULOCTIDIL],Not Active,Not Active
O=c1[nH]c(=O)n(C2CCCO2)cc1F (configuration not stated) [TEGAFUR],Not Active,Not Active
CC(=N)S [THIOACETAMIDE],Not Active,Not Active
